# Assay results reported in article PMC5831858, “Pharmacological characterisation of CR6086, a potent prostaglandin E2 receptor 4 antagonist, as a new potential disease-modifying anti-rheumatic drug” (Arthritis Research & Therapy, 2018).
# “Also recorded” adds a separate entry of the source.
# Legend:
# [1] = tested on: α1 (non-selective); experiment: Adrenergic receptor α1 binding; conditions: [^3H]prazosin, Rat cerebral cortex
# [2] = tested on: sst (non-selective); experiment: sst receptor (non-selective) binding; conditions: [^125I]Tyr^11-somatostatin-14, AtT-20 cells
# [3] = target: rat EP4 receptor (Rattus norvegicus, UniProt P43114); experiment: EP4 receptor occupancy estimation from plasma exposure; conditions: 3 mg/kg; repeated doses
# Description: CR6086 concentrations in rat plasma were determined by high-performance liquid chromatography (Agilent 1200 series; Agilent Technologies, Santa Clara, CA, USA) coupled with a triple-quadrupole mass spectrometer (API 4000 QTRAP; SCIEX, Concord, ON, Canada). A ZORBAX SB-C18 2.0 × 50-mm, 3.5-μm column (Agilent Technologies) in isocratic conditions was used with mobile phase 0.1% formic acid in water/acetonitrile (68:32 vol/vol). The method was linear within the dynamic range 1.0–10,000 ng/ml (lower to upper limit of quantification). CR6086 plasma protein binding was determined in the 0.2–200 μM concentration range using [^14C]CR6086 and equilibrium dialysis. EP4 receptor occupancy (RO) was calculated on the basis of CR6086 concentrations according to the following formula: RO%=Cave/Cave+Ki×100,
# An estimation of the receptor occupancy was attempted in the dose range investigated in CIA rats. Because the CIA experiments were conducted after repeated doses, whereas the exposure shown above was determined after a single dose of CR6086, receptor occupancy estimation in the CIA rats took into consideration the accumulation ratio of CR6086 after repeated doses averaging 1.19 in male rats. […] Thus, in our experiments, clinically relevant effects in the CIA rat model were observed starting from approximately 50% EP4 receptor occupancy. […]
# [4] = tested on: arthritic rats (collagen-induced arthritis model); experiment: Collagen-induced arthritis in rats: clinical score, oedema, histology; format: in vivo, rat
# Description: Male Lewis rats were immunised by intradermal injection at the base of the tail with an emulsion containing 150 μg of bovine collagen type II (bCII) in complete Freund’s adjuvant (CFA) or received an injection with incomplete Freund’s adjuvant (sham group). Three weeks after the first immunisation, animals were boosted with the same procedure. Three days after booster injection, arthritis had developed in all animals but the sham group. Oedema was assessed via plethysmometer (Ugo Basile, Varese, Italy), and the animals were then randomised to treatment groups. Oedema measurement was performed again after 7 and 14 days of treatment. Animals were blindly scored by two different investigators for clinical signs of arthritis (redness, swelling, pain of hind limb joints) as follows: 0 = normal; 1 = mild but definite redness and swelling of the ankle or wrist or individual digits, regardless of the number of affected digits; 2 = moderate redness and swelling of ankle or wrist; 3 = severe redness and swelling of the entire paw including digits; and 4 = maximally inflamed limb with involvement of multiple joints. The mean of the scores assigned by the investigators was calculated.
# Three different experiments in rat CIA are reported: a dose-response study, as well as two comparative studies vs the COX-2 inhibitor rofecoxib and the Janus kinase (JAK) inhibitor tofacitinib, respectively.
# Briefly, the paws were fixed in 10% neutral buffered formalin (Bio-Optica, Milan, Italy) and subsequently decalcified in EDTA for 4 weeks. Samples were dehydrated in an ethanol series and embedded in paraffin. At least three non-consecutive sections for each paw were blindly scored at the level of the tarsus, metatarsus and calcaneus for the following histological features: synovial oedema, pannus, synovial inflammatory cell infiltrate, cartilage damage, osteolysis and woven bone. Based on these histological features, a synovial score (synovial oedema, plus synovial inflammatory cell infiltrate, plus pannus), a bone score (woven bone plus osteolysis) and a total score were calculated. Two independent pathologists performed histopathology on blinded slides. The data of right and left hind limbs were summed for each rat.
# [5] = target: CXCR2 (IL-8B) (Homo sapiens, UniProt P25025); experiment: CXCR2 receptor binding; conditions: [^125I]IL-8, Human recombinant HEK-293 cells, read-out: CR6086 Activity at 10µM
# [6] = target: IP (PGI2) (Homo sapiens, UniProt P43119); experiment: Eicosanoid receptor IP binding; conditions: [^3H]iloprost, HEK-293 cells, read-out: CR6086 Activity at 10µM
# [7] = target: MC4 (Homo sapiens, UniProt P32245); experiment: MC4 receptor binding; conditions: [^125I]NDP-α-MSH, Human recombinant CHO cells, read-out: CR6086 Activity at 10µM
# [8] = target: T1, COX-1 (Homo sapiens, UniProt P23219); experiment: Cyclooxygenase COX-1 enzymatic activity; format: biochemical; conditions: Sf9 cells, read-out: CR6086 Activity at 10µM
# T1 construct: host or cells: Sf9 cells
# [9] = target: A2A (Homo sapiens, UniProt P29274); experiment: Adenosine receptor A2A binding; conditions: [^3H]CGS 21680, Human recombinant HEK-293 cells
# [10] = target: GAL2 (Homo sapiens, UniProt O43603); experiment: Galanin receptor GAL2 binding; conditions: [^125I]galanin, Human recombinant CHO cells, read-out: CR6086 Activity at 10µM
# [11] = target: CB1 (Homo sapiens, UniProt P21554); experiment: Cannabinoid receptor CB1 binding; conditions: [^3H]CP 55940, Human recombinant CHO cells, read-out: CR6086 Activity at 10µM
# CB1, sequence (P21554 whole entry): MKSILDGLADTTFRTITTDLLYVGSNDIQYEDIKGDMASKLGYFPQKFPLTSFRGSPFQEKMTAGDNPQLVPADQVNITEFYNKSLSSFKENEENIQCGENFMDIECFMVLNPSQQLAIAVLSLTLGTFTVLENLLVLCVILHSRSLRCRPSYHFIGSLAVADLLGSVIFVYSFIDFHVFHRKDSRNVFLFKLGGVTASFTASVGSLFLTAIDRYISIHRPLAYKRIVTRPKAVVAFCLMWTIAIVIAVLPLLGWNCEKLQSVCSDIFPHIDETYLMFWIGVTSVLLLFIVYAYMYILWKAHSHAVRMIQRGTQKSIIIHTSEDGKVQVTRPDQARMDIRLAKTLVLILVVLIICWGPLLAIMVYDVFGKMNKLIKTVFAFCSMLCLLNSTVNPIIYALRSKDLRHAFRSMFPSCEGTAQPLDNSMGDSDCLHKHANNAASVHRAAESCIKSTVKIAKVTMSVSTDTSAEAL
# MC4, sequence (P32245 whole entry): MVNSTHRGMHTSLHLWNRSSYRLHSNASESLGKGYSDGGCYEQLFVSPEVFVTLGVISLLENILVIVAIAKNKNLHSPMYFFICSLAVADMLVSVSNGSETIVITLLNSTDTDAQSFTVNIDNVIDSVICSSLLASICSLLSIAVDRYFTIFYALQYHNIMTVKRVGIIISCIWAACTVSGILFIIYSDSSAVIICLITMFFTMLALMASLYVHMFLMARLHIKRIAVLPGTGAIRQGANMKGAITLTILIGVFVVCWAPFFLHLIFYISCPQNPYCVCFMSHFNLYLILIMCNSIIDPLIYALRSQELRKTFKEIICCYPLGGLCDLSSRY
# T1 sequence (P23219 24-599): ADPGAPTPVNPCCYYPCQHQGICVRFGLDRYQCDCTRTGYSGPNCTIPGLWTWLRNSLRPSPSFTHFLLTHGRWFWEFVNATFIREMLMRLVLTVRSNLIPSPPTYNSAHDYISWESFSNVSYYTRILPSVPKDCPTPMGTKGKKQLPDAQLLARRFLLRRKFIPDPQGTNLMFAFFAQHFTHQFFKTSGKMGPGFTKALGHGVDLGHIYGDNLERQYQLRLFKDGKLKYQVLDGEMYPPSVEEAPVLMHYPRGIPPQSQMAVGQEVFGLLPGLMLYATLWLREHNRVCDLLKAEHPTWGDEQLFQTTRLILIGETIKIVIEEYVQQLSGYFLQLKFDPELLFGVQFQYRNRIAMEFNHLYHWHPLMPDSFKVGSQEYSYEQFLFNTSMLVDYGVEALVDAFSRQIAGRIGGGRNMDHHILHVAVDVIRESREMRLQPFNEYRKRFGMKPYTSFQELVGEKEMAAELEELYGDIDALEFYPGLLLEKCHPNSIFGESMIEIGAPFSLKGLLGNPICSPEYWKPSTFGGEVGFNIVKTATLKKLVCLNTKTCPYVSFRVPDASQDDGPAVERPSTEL
# rat EP4 receptor, sequence (P43114 whole entry): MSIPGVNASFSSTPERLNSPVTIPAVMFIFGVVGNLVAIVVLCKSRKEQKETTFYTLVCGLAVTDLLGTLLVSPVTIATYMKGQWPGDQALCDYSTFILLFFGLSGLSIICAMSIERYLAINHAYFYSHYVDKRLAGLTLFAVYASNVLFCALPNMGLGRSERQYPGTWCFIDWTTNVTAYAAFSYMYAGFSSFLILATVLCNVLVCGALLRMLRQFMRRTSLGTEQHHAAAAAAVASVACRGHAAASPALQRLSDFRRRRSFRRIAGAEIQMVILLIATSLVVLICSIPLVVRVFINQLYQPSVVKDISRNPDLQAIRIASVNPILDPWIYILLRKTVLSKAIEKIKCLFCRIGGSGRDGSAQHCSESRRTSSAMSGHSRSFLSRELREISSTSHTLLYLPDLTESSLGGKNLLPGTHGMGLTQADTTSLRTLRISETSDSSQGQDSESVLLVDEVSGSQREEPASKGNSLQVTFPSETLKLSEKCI
# GAL2, sequence (O43603 whole entry): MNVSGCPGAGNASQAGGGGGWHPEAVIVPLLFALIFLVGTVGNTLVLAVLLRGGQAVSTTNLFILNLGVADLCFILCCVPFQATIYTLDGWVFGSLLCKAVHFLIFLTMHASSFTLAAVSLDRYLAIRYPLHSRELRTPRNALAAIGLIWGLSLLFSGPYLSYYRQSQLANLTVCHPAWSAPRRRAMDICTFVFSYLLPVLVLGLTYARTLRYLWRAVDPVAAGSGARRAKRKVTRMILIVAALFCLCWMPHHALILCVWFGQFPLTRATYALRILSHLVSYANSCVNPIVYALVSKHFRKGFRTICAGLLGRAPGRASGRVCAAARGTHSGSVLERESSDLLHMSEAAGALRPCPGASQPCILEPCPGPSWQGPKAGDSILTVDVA
# CXCR2 (IL-8B), sequence (P25025 whole entry): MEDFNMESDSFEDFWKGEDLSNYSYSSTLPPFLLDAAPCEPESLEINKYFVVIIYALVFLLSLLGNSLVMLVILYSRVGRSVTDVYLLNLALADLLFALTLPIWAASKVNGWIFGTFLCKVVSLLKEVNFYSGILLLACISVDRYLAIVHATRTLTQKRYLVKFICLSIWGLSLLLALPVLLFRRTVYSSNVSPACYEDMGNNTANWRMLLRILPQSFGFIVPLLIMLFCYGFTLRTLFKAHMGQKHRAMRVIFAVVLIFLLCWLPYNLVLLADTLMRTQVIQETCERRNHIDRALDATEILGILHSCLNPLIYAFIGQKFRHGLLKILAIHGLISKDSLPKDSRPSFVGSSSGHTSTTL
# A2A, sequence (P29274 whole entry): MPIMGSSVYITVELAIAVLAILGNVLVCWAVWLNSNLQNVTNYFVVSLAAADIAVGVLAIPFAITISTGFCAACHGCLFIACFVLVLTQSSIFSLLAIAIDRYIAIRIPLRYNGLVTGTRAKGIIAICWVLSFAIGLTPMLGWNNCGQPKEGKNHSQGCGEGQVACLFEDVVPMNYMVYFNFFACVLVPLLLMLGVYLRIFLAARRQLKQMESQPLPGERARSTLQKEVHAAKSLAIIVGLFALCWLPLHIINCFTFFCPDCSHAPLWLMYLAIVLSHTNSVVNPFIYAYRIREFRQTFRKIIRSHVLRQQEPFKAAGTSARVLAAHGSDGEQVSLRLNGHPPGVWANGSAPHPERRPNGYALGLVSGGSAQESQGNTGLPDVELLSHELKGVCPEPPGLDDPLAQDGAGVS
# IP (PGI2), sequence (P43119 whole entry): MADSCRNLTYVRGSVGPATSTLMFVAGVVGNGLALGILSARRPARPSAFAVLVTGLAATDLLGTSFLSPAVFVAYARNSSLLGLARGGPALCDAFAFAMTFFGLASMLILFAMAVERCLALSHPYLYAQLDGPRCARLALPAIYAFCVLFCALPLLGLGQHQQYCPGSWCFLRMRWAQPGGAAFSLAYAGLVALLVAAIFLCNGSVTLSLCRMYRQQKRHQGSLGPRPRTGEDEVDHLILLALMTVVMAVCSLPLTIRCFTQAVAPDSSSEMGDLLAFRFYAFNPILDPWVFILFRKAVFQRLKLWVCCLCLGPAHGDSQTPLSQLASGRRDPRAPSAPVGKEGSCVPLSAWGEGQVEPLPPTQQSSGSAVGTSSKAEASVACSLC
smiles,measurement,setting,value
"O=C([O-])c1ccc(C2(NC(=O)[C@H]3CC4(CCN3Cc3ccc(C(F)(F)F)cc3)CC4)CC2)cc1.[Na+] [CR6086, Sodium (R)-4-(1-(6-(4-(trifluoromethyl)benzyl)-6-azaspiro[2.5]octane-5-carboxamido)cyclopropyl)benzoate]",CR6086 Activity at 10µM,[1],IN (IN = < 20% displacement or inhibition (all tables))
same,CR6086 Activity at 10µM,[2],IN (IN = < 20% displacement or inhibition (all tables))
same,estimated EP4 receptor occupancy,[3],approximately 50%
same,"effect on structural and inflammatory parameters (oedema, histology)","[4]; 15 mg/kg once daily, 14 days",markedly and significantly improved all the structural and inflammatory parameters
same,effect on arthritis clinical score and oedema,"[4]; 1-10 mg/kg oral daily, 1 h and 24 h post-dosing",significantly and dose-dependently reduced
same,efficacy relative to active comparators,"[4]; CR6086 15 mg/kg once daily, rofecoxib 5–15 mg/kg once daily, tofacitinib 5–25 mg/kg twice daily","more effective than rofecoxib; also recorded: as effective as, but more potent than, tofacitinib"
same,dose at which efficacy plateaued,"[4]; oral, once daily, 14 days",around 10 mg/kg
same,minimum effective dose,"[4]; oral, once daily, 14 days",1 mg/kg
same,inhibition at 10 µM,[5],< 20%
same,inhibition at 10 µM,[6],< 20%
same,inhibition at 10 µM,[7],< 20%
same,inhibition at 10 µM,[8],< 20%
same,CR6086 Activity at 10µM,[9],IN (IN = < 20% displacement or inhibition (all tables))
same,inhibition at 10 µM,[10],< 20%
same,inhibition at 10 µM,[11],< 20%
